Measured values: patent US20120077732A1, “CYCLIC PEPTIDES AND USES THEREOF” (SYDNEY WEST AREA HEALTH SERVICE, priority 2008, published 2012)
Converted amounts (≈) assume the structure as drawn. Where two headings read alike, the source gives them in different places.

How the values were obtained:
[1] = Surface plasmon resonance binding to DMPC liposomes; settings: SPR
Procedure: (§1) Model membranes composed of zwitterionic and anionic phospholipids were prepared as previously described (Bender et al., 2004). Briefly, DMPC and DMPG were dissolved in dry chloroform and chloroform/methanol (2:1) respectively to give 10 mg/ml solutions. […] The solution was sonicated in an ultrasonic bath for 20 min. Eight cycles of freeze/thawing was followed by extrusion through polycarbonate filters, first 100 nm (21 times) then 50 nm pore diameter (21 times), using a Lipofast apparatus (Avestin, Ottawa, Canada) and SUVs were used immediately. SPR was carried out on a BIAcore 2000 instrument using Pioneer Sensor Chip L1 and HEPES (HBS-N, Biacore, Upssala, Sweden) as running buffer. The chip surface was cleaned with 40 mM octyl glycoside (30 μl, 10 μl/min) followed liposomes (SUV) (100 μl, 5 μl/min). 10 mM NaOH (40 μl, 10 μl/min) removed any multilamellar vesicles from the surface before injecting the lipopeptide solutions (100 μl, 5 μl/min). The dissociation stage was 1200 sec. […] All SPR experiments were run at 25° C. and all analyses were performed using the BIAevaluation software (Biacore, Uppsala, Sweden). Lipopeptide binding was expressed as the difference in signal between points before sample injection and after dissociation.

[2] = test system: allergic mice (OVA model); assay type: in vivo; settings: 200 μg subcutaneous; compared to historical OVA/OVA mice
Procedure: The effect on the inflammatory response of the 200 μg dose and subcutaneous route of administration of cyclic C1 peptide determined in Example 8 was tested with the OVA (ovalbumin) model (Temelkovski, et al. (1998); Foster, et al. (2000); Asquith et al (2008)) according to the following study design. At the endpoint mice were euthanased and BALF was obtained by cannulating the trachea and flushing the airways with two 0.8 ml volumes of Hank's Balanced Salt Solution (HBSS). Recovered cells were treated with erythrocyte lysis buffer, cytospins prepared and stained with May-Grunwald Giemsa and differential leukocyte counts performed based on morphological criteria (min 200 cells counted/slide). Statistical analysis was performed using a student's unpaired t-test. Results were compared to historical data.

2B4.11 hybridoma = test: Antigen presentation assay (IL-2 produced in response to antigen); assay type: cell-based; settings: for IL2 %: 50 μM, relative to DMSO control (100%); for IL-2 production, % of the solvent only control value: 0.5% DMSO, ±SD
allergic mice (OVA/OVA) [3] = test: Allergic airways disease (OVA) model: airways hyperreactivity to methacholine; assay type: in vivo; parameters: key to Airway Resistance / Airway Compliance: nc: no change; ↑: increase; ↓: decrease
2B4.11 cells [4] = test: T-cell activation with H57-597 antibody (TCRβ chain crosslinking), IL-2 production; assay type: cell-based; settings: H57-597 0.5 μg/mL with LK cells; 50 μM; relative to DMSO control; ±SD
Procedure: To analyse the mode of action of C1, T-cells were activated using 2C11-145 and H57-597 antibodies. The H57-597 antibody is directed against the TCRβ chain, and when administered at sub-optimal doses in conjunction with accessory cells (LK35.2), is capable of activating T cells. […] C1 was added to give a final reaction volume of 250 μL at 50 μM and 0.5% DMSO.

allergic mice (OVA/OVA) [5] = test: Allergic airways disease (OVA) model: inflammatory cells in BALF; assay type: in vivo; parameters: key to Airway lymphocytes / Airway eosinophils / Airway macrophages / Airway inflammatory cells / Airway neutrophils: nc: no change; ↑: increase; ↓: decrease
NOD mice = test: Treatment of NOD mice, blood glucose level / diabetes; assay type: in vivo; settings: i.p. injections of 0.1 mg
Procedure: NOD mice were fasted for at least 1.5 h prior to blood glucose level (BGL) measurements. In the morning, all mice were treated with intraperitoneal (i.p.) injections of 0.1 mg C1 and BGLs were taken. Control mice received 0.2 mL of water.

S. aureus = assay type: cell-based
Procedure: (§2) The synthetic C1 peptide and its analogues were tested using Standard disk susceptibility testing by National Committee for […] Laboratory Standards (NCCLS) against, S. aureus, E. coli and S. pneumoniae. […]

2B4.11 cells [6] = test: T-cell activation with 2C11-145 antibody (CD3 crosslinking), IL-2 production; assay type: cell-based; settings: CD3 crosslinking with 2C11-145; 50 μM; relative to DMSO control; ±SD
Procedure: To analyse the mode of action of C1, T-cells were activated using 2C11-145 and H57-597 antibodies. The H57-597 antibody is directed against the TCRβ chain, and when administered at sub-optimal doses in conjunction with accessory cells (LK35.2), is capable of activating T cells. […] C1 was added to give a final reaction volume of 250 μL at 50 μM and 0.5% DMSO. […] T cells were also activated using the 2C11-145 antibody to crosslink the CD3 chains of the TCR, thereby bypassing the antigen recognition sub-units of the TCRα/β.

[7] = Surface plasmon resonance binding to DMPG liposomes; settings: SPR, L1 sensor chip, 50 μM, 25° C.
Procedure: as §1

E. coli = test: Standard disk susceptibility testing (NCCLS), E. coli; assay type: cell-based
Procedure: as §2

2B4.11 T-cells = test: in vitro; assay type: cell-based; settings: 50 μM, relative to 0.5% DMSO control; ±SD
Procedure: (§3) First, to determine if the activity of C1 was due to toxicity, 2B4.11 T-cells (1×10^5) were cultured in microtiter wells in the presence of the peptide conjugates at 50 μM. After 20 hours, 30 μL were removed and cells assessed for viability by trypan blue staining. The remaining culture was then pulsed with 0.5 μCi [^3H] thymidine for 5 h, harvested, and quantitated for [^3H] thymidine uptake to assess cellular proliferation.

in vitro = assay type: cell-based
Procedure: as §3

S. pneumoniae = test: Standard disk susceptibility testing (NCCLS), S. pneumoniae; assay type: cell-based
Procedure: as §2

[8] = 200 μg s.c. during challenge, allergic mice
[9] = 200 μg/100 μl s.c. during OVA challenge, compared to OVA/OVA alone

## CC(C)C[C@@H]1NC(=O)[C@@H](CC(C)C)NC(=O)[C@H](CCCNC(=N)N)NC(=O)[C@@H](CC(C)C)NC(=O)CNC(=O)[C@@H](C(C)C)NC(=O)[C@H](CCCCN)NC(=O)[C@@H](CC(C)C)NC(=O)[C@H](CC(C)C)NC(=O)[C@@H](CC(C)C)NC1=O [C1, LDRLDLLDLLDKVDG]
[1]
  binding affinity to DMPC model membrane relative to CP: approximately 10 fold
[1]; L1 sensor chip, 50 μM, 25° C.
  binding to DMPC (zwitterionic) liposomes: bound much stronger
[1]; model membranes
  binding relative to all the other analogues examined (with the exception of C2): > 10 fold
[2]
  eosinophils in BALF: decrease
  macrophages in BALF: significant reduction
  total inflammatory cells in BALF: reduction
2B4.11 hybridoma; average, Tables 1-3
  % Ave IL2 Production: 17%
2B4.11 hybridoma; fifth IL2 column (individual experiment in triplicate)
  IL2 %: 15.6%
2B4.11 hybridoma; fourth IL2 column (individual experiment in triplicate)
  IL2 %: 18.9%
2B4.11 hybridoma; peptide 25 μM
  IL-2 production, % of the solvent only control value: 59.69%±23.54
2B4.11 hybridoma; peptide 50 μM
  IL-2 production, % of the solvent only control value: 7.73%±4.97
Allergic mice (OVA/OVA) [3]; [8]
  airway resistance in response to methacholine challenge: no significant effect
  dynamic compliance in response to methacholine challenge: no significant effect
Allergic mice (OVA/OVA) [3]; [9]
  Airway Compliance: ↑
  Airway Resistance: nc
2B4.11 cells [4]
  IL-2 production: 54.02%+/−9.32
Allergic mice (OVA/OVA) [5]; [8]
  eosinophils in BALF: decrease
  total inflammatory cell counts in bronchoalveolar lavage fluid (BALF): significantly decreased
Allergic mice (OVA/OVA) [5]; [9]
  Airway eosinophils: ↓
  Airway inflammatory cells: ↓
  Airway lymphocytes: nc
  Airway macrophages: nc
  Airway neutrophils: nc
NOD mice
  blood glucose level control versus control group: more tightly controlled
NOD mice; preliminary results, control 7/21
  mice that developed diabetes (BGL higher than 15 mM on two consecutive days): 2/7
S. aureus
  MIC against S. aureus: 100 µg/mL (≈ 89.3 µM)
S. aureus; peptide 10 μg/ml
  antimicrobial activity, S. aureus: −ve
S. aureus; peptide 100 μg/ml
  antimicrobial activity, S. aureus: +ve
S. aureus; peptide 1000 μg/ml
  antimicrobial activity, S. aureus: +ve
2B4.11 cells [6]
  % IL-2 production: 50.00%+/−15.79
[7]
  binding to DMPG (anionic) liposomes: bound much stronger
E. coli; peptide 10 μg/ml
  antimicrobial activity, E. coli: −ve
E. coli; peptide 100 μg/ml
  antimicrobial activity, E. coli: −ve
E. coli; peptide 1000 μg/ml
  antimicrobial activity, E. coli: −ve
2B4.11 T-cells
  cellular proliferation ([3H] thymidine uptake): 62.56%±14.25
In vitro
  viability at 20 h, 50 µM: 86.6%
S. pneumoniae; peptide 10 μg/ml
  antimicrobial activity, S. pneumoniae: −ve
S. pneumoniae; peptide 100 μg/ml
  antimicrobial activity, S. pneumoniae: −ve
S. pneumoniae; peptide 1000 μg/ml
  antimicrobial activity, S. pneumoniae: −ve
